Tests used:
bacterial culture = test: Minimum inhibitory concentration (MIC), serial 2-fold dilution in 96-well plate; assay type: cell-based; conditions: overnight incubation in TSB, inoculum 0.2 OD
Experimental: To evaluate minimum inhibitory concentrations (MICs), the concentration of the twenty four hour culture in log phase is adjusted by diluting in tryptic soy broth (TSB) so that an optical density of 0.2 at 610nm is obtained. The bacterial culture is then ready to be used for testing.
Three solutions are prepared: (1) 1% CPC solution in ethanol; (2) 1% solution of the Compound of Formula (II) in water; and (3) 0.5% of a Compound of Formula (II) +0.5% CPC. The solutions are diluted 1:9 in TSB. They are added to a 96-well plate and a serial dilution (2-fold) is made across the plate. The bacterial inoculum at 0.2 OD, 1000, is added to every well. The plate is incubated overnight and read on a plate reader the following day.

TNF-a = test: Anti-inflammatory activity, cytokine generation in HKPG-stimulated U937 macrophages; assay type: cell-based, Human; conditions: 0.1 ppm; U937 macrophages stimulated with heat killed P. gingivalis
Text: (§1) The anti-inflammatory activity of a compound of Formula (II) is studied against six human inflammatory cytokines, PGE2, IL-1B, IL-6, IL-8, TNF-a, and GM-CSF in separate sets of experiments; first against PGE2, then against the five other cytokines Human monocyte U937 cells are differentiated to macrophages and then generation of cytokines is induced by stimulating the cells using heat killed P. gingivalis (HKPG, 1×10^8 cells). Different types of inflammatory cytokines are generated by U973 cells and released into the supernatant.

IL-1B = test: as above; assay type: cell-based, Human; conditions: 0.1 ppm; U937 macrophages stimulated with heat killed P. gingivalis
Text: as §1

IL-6 = test: as above; assay type: cell-based, Human; conditions: 0.1 ppm; U937 macrophages stimulated with heat killed P. gingivalis
Text: as §1

**Q.** With `CCCCCCCCNCCC[C@@H](C)[C@H]1CC[C@H]2C3[C@H](OCCCN)CC4C[C@H](OCCCN)CC[C@]4(C)[C@H]3C[C@H](OCCCN)[C@]12C` (stereo partly shown) [Compound of Formula (II)] as the compound, how does the MIC (bacterial culture) read?
**A.** 0.49 µg/mL

**Q.** And the “reduction of TNF-a” value (TNF-a)?
**A.** 80%

**Q.** What about the “reduction of IL-10 (so in the source)” value (IL-1B) of the same compound?
**A.** 21%

**Q.** And the “reduction of IL-6” value (IL-6)?
**A.** 60%

Reference: patent US9345655B2, “Oral care compositions” (BRIGHAM YOUNG UNIVERSITY, priority 2011, dated 2016)
